Source: US10301294B2, “Compounds for the treatment of tuberculosis” (priority 2013, dated 2019)

How the values were obtained:
Type in all cases: cell-based
[1] = Cytotoxicity against HeLa; settings: human, HeLa cells, 26.0 uM highest concentration measured
[2] = Cytotoxicity against Hek 293; settings: human, HEK293 cells, 26.0 uM highest concentration measured
[3] = Cytotoxicity against HepG2; settings: human, HepG2 cells, 26.0 uM highest concentration measured
[4] = tested on: carbon-starved M. tuberculosis H37Rv; test: Non-replicating IC90 determination by luciferase (carbon-starved cells); settings: Mycobacterium tuberculosis, H37RV; non-replicating carbon-starved Mtb, luciferase; three independent experiments in triplicate; read-out: TB Growth Inhibition Activity, IC90 Non-replicating_luciferase
[5] = tested on: replicating M. tuberculosis H37Rv; test: microbe, parasite or virus in culture; settings: Mycobacterium tuberculosis, H37RV, three independent experiments in triplicate, read-out: TB Growth Inhibition Activity, IC90 Replicating_logarithmic (converted)

SMILES | IC50 [1] [µM] | IC50 [2] [µM] | IC50 [3] [µM] | IC90 [4] [µM] | IC90 [5] [µM]
c1ccc(COc2nnc(-c3ccccc3)o2)cc1 | > 26 | > 26 | > 26 | 8 | –
c1ccc(CNc2nnc(-c3ccccc3)o2)cc1 | > 26 | > 26 | > 26 | 4 | –
CN(Cc1ccccc1)c1nnc(-c2ccccc2)o1 | > 26 | > 26 | > 26 | 0.5 | 250
O=C(Cc1ccccc1)c1nnc(-c2ccccc2)o1 | > 26 | > 26 | > 26 | 16 | –
Cc1nnc(SCc2ccccc2)o1 | > 26 | > 26 | > 26 | 31 | –
Cc1ccccc1-c1nnc(SCc2ccccc2)o1 | > 26 | > 26 | > 26 | 16 | –
FC(F)(F)Oc1ccccc1-c1nnc(SCc2ccccc2)o1 | > 26 | > 26 | > 26 | 62 | –
Cc1cccc(-c2nnc(SCc3ccccc3)o2)c1 | > 26 | > 26 | > 26 | 8 | –
Clc1cccc(-c2nnc(SCc3ccccc3)o2)c1 | > 26 | > 26 | > 26 | 8 | –
FC(F)(F)c1cccc(-c2nnc(SCc3ccccc3)o2)c1 | > 26 | > 26 | > 26 | 31 | –
CS(=O)(=O)c1cccc(-c2nnc(SCc3ccccc3)o2)c1 | > 26 | > 26 | > 26 | 125 | –
N#Cc1cccc(-c2nnc(SCc3ccccc3)o2)c1 | > 26 | > 26 | > 26 | 8 | –
COc1ccc(-c2nnc(SCc3ccccc3)o2)cc1 | > 26 | > 26 | > 26 | 31 | –
FC(F)(F)Oc1ccc(-c2nnc(SCc3ccccc3)o2)cc1 | > 26 | > 26 | > 26 | 2 | –
FC(F)(F)c1ccc(-c2nnc(SCc3ccccc3)o2)cc1 | > 26 | > 26 | > 26 | 1 | –
N#Cc1ccc(-c2nnc(SCc3ccccc3)o2)cc1 | > 26 | > 26 | > 26 | 8 | –
c1ccc(CSc2nnc(-c3ccncc3)o2)cc1 | > 26 | > 26 | > 26 | 31 | –
c1ccc(CSc2nnc(-c3cnco3)o2)cc1 | > 26 | > 26 | > 26 | 8 | –
c1ccc(CSc2nnc(-c3cc4ccccc4o3)o2)cc1 | > 26 | > 26 | > 26 | 2 | –
Fc1ccccc1CSc1nnc(-c2ccccc2)o1 | > 26 | > 26 | > 26 | 1 | 250
Clc1ccccc1CSc1nnc(-c2ccccc2)o1 | > 26 | > 26 | > 26 | 2 | 250
FC(F)(F)Oc1ccccc1CSc1nnc(-c2ccccc2)o1 | > 26 | > 26 | > 26 | 4 | 500
Cc1cccc(CSc2nnc(-c3ccccc3)o2)c1 | > 26 | > 26 | > 26 | 1 | 125
COc1cccc(CSc2nnc(-c3ccccc3)o2)c1 | > 26 | > 26 | > 26 | 1 | –

SMILES | IC50 [1] [µM] | IC50 [2] [µM] | IC50 [3] [µM] | IC90 [4] [µM] | IC90 [5] [µM]
Clc1cccc(CSc2nnc(-c3ccccc3)o2)c1 | > 26 | > 26 | > 26 | 4 | –
Fc1cccc(CSc2nnc(-c3ccccc3)o2)c1 | > 26 | > 26 | > 26 | 2 | 250
FC(F)(F)c1cccc(CSc2nnc(-c3ccccc3)o2)c1 | > 26 | > 26 | > 26 | 4 | 250
FC(F)(F)Oc1cccc(CSc2nnc(-c3ccccc3)o2)c1 | > 26 | > 26 | > 26 | 2 | –
N#Cc1cccc(CSc2nnc(-c3ccccc3)o2)c1 | > 26 | > 26 | > 26 | 8 | –
CS(=O)(=O)c1cccc(CSc2nnc(-c3ccccc3)o2)c1 | > 26 | > 26 | > 26 | 250 | 250
Cc1ccc(CSc2nnc(-c3ccccc3)o2)cc1 | > 26 | > 26 | > 26 | 1 | –
COc1ccc(CSc2nnc(-c3ccccc3)o2)cc1 | > 26 | > 26 | > 26 | 0.25 | –
Clc1ccc(CSc2nnc(-c3ccccc3)o2)cc1 | > 26 | > 26 | > 26 | 1 | –
FC(F)(F)c1ccc(CSc2nnc(-c3ccccc3)o2)cc1 | > 26 | > 26 | > 26 | 1 | –
FC(F)(F)Oc1ccc(CSc2nnc(-c3ccccc3)o2)cc1 | > 26 | > 26 | > 26 | 1 | –
N#Cc1ccc(CSc2nnc(-c3ccccc3)o2)cc1 | > 26 | > 26 | > 26 | 2 | –
CS(=O)(=O)c1ccc(CSc2nnc(-c3ccccc3)o2)cc1 | > 26 | > 26 | > 26 | 31 | –
c1ccc(-c2ccc(CSc3nnc(-c4ccccc4)o3)cc2)cc1 | > 26 | > 26 | > 26 | 8 | –
c1ccc(-c2nnc(SCc3ncco3)o2)cc1 | > 26 | > 26 | > 26 | 16 | 31
c1ccc(-c2nnc(SCc3cscn3)o2)cc1 | > 26 | > 26 | > 26 | 4 | 62
CN(C)CCSc1nnc(-c2ccccc2)o1 | > 26 | > 26 | > 26 | 16 | 500
FC(F)(F)CNCCSc1nnc(-c2ccccc2)o1 | > 26 | > 26 | > 26 | 250 | –
c1ccc(-c2nnc(SCCN3CCOCC3)o2)cc1 | > 26 | > 26 | > 26 | 250 | –
CC1(O)CN(CCSc2nnc(-c3ccccc3)o2)C1 | > 26 | > 26 | > 26 | 125 | –
FC1(F)CN(CCSc2nnc(-c3ccccc3)o2)C1 | > 26 | > 26 | > 26 | 1 | 250
c1ccc(-c2nnc(SCCN3CCCC3)o2)cc1 | > 26 | > 26 | > 26 | 16 | –
Fc1ccc(CSc2nnc(-c3ccccc3)o2)cc1 [drawing 136] | > 26 | > 26 | > 26 | 1 | –
